Experimental data reported in US4680382A, “Analogues of actinomycin D” (priority 1986, dated 1987).
Where “and” joins values, the source holds several entries; their conditions need not be identical. Identical values can stand only once. *1 amine or outer side, *2 acyl side, *3 side chain or, on linkers, in order; H or OH if unused. Where a SMILES comes first, the peptide text is derived from it. Bridges are numbered along the chain shown (N, C = ends). Roman numbers before positions name the chains, in order. [ ]: non-standard residue; d: D form. Actinocin(9to1) = Cc1c2oc3c(C)ccc(C(=O)[*:1])c3nc-2c(C(=O)[*:2])c(N)c1=O; NMeV = CN[C@H](C(=O)O)C(C)C; Sar = CNCC(=O)O

Experiments:
B16 melanoma = assay: In vivo antitumor activity against B16 melanoma; set-up: species or system BDF1 mice; settings: for % ILS / surv (survivors on day 65/total injected) / MST (range): at optimal dose; for MST (range): control 29 (20-48); for optimal dose: ip, days 1, 5, 9
Experimental: AMD-OZL analogues 9a and 10a were about as active as AMD and 7-hydroxy-AMD. The potencies of these analogues are reduced in comparison to that of AMD; their optimal doses were higher than that of AMD.
^a 0.2 mL of 1:5 (weight/volume) brei of B16 melanoma implanted
ip on day 0 in groups of nine BDF1 mice. Drugs administered ip.
^b MST (range) median survival time in days (range of individual
^c % ILS (surv), percent increase in lifespan (survivors on day

rat hepatic microsomes = assay: Stimulation of adrenochrome formation (superoxide generation) in rat hepatic microsomal incubations; settings: for adrenochrome formation: 480 nm, 37° C., no more than 100 μM drug, basal 2.11 ± 0.11; for adrenochrome formation / percentage stimulation of adrenochrome formation over basal rate: no SOD; for adrenochrome formation in presence of SOD: SOD (superoxide dismutase) 5 μg/mL added
calf-thymus DNA = assay: Equilibrium binding to calf-thymus DNA, Scatchard plots of binding isotherms (spectrophotometric); settings: Scatchard plot
Experimental: The "reverse" analogues bind to calf-thymus DNA, but the spectrophotometrically determined binding (Kapp and Bapp, equilibrium binding values) constants are found to be lower than those of AMD. The binding is also measured by thermal denaturation of DNA.
The equilibrium binding constants (Kapp and Bapp) of the "reverse" methyl 7a and the "reverse" phenyl 8a were determined from the Scatchard plots of binding isotherms; the Scatchard plots are produced according to the previously described methods using calf-thymus DNA [Sengupta et al, Biochem. Biophys. Acta 521, 89 (1978)]. The Kapp values are 2.5×10^6 and 2.3×10^6 M^-1, respectively; corresponding Bapp values are 0.038 and 0.036. […] But, these "reverse" analogues associate with DNA less strongly; their frequency of binding is also lower compared to that of AMD. However, the "reverse" analogues fail to cause any measurable change in the ratio of the intrinsic viscosity (γ) of DNA with the increasing ratios of [ligand]/DNA base pair (r), even when low molecular weight DNAs (0.5×10^5 to 1.0×10^5) were employed.

P388 cells [1] = assay: Inhibition of RNA synthesis (2-[14C]uridine incorporation) in P388 cells; format: cell-based, murine; settings: for IC50: 50% reduction in 1 hr of 2-[14C]uridine incorporation, read-out: IC50 RNA synth; for IC50 DNA/IC50 RNA: ratio
Experimental: (§1) Experiments for inhibition of nucleic acid synthesis in tumor cells in vitro were carried out with P388 tumor cells, details of which were reported by Sengupta et al, J. Med. Chem., 18, 1175 (1975). […] AMD-OZLs inhibit either process with equal activity and with the potency of its metabolite 7-hydroxy-AMD.
^b IC50 (RNA) = concentration of inhibitor in μM required to
cause 50% reduction (in 1 hr) in 2[^14 C]uridine incorporation into
acid precipitable material with use of P388 cells.

P388 cells [2] = assay: Inhibition of DNA synthesis (methyl-[3H]thymidine incorporation) in P388 cells; format: cell-based, murine; settings: 50% reduction in 1 hr of methyl-[3H]thymidine incorporation, read-out: IC50 DNA synth
Experimental: as §1
^c IC50 (DNA) = concentration of inhibitor in μM required to
cause 50% reduction (in 1 hr) in methyl[^3 H]thymidine incorporation
into acid precipitable material with use of P388 cells.

[3] = Metabolism of tritiated drugs in tumor cell homogenate (sonicated P388 cells); format: in vitro ADME, murine; settings: tumor cell homogenate (T), 16 hr; for Percent isolated: unconverted: 37° C.
Experimental: A method of using tumor cell sonicates was developed to study the metabolism of the analogues of AMD. By use of sonicated cells, the dilution effects that would occur if flasks of cultured cells were used are avoided. Although the cells are disrupted by this method, their enzyme systems appear to remain active. Large numbers of tumor cells (P388 murine leukemia) were sonicated in Earle's balanced salt solution (EBSS) and were incubated with tritiated AMD and its analogues 7a and 9a (Table II) for 16 hr. In another experiment, the analogues were treated with rat hepatic microsomes at 37° C. for 6 hr in the presence of a NADPH-generating system. The metabolic products were isolated and identified with the following results (Table II). […] In the microsomes, the major metabolites were in unconjugated forms; in the tumor cell homogenates, the major identified metabolites were glucuronide and sulfate conjugated forms. It should be pointed out that in these metabolic experiments, the identification of these glucuronide and/or sulfate conjugates was made only on the basis of the disappearance of the peaks from the HPLC chromatograms upon treatment with deconjugating enzymes glucarase.
A large number of P388 cells (10^8 cells) were sonicated in Earle's balanced salt solution (EBSS) in ice. Tritiated analogues 7a, 8a and AMD, 0.4 Ci/mmol, were added and the mixtures were incubated at 37° C. for 16 hr. Drugs in EBSS without the addition of the cell sonicates served as controls. The samples were treated with urea to bring the urea concentration to 5M. The procedure helped to free all drugs that associated noncovalently with DNA. After 60 min at room temperature, the samples were centrifuged through Amicon 1053 cone filters (molecular weight cut-off approximately 25000) after adjustment of pH to 5 to facilitate extraction of unconjugated metabolites in organic solvents.
Unconjugated or uncoupled products were first extracted with ethyl acetate (step A) and aliquots of aqueous layers were treated with equal volumes of glucarase (a preparation of β-glucuronidase and sulfatase) or with buffer (control); see following section. The glucuronide and the sulfate derivatives were thus deconjugated and the freed products were extracted in ethyl acetate (step B). A highly sensitive technique for detection of a series of AMD analogues using HPLC was employed; sensitivity of this assay ranges from 50 nmol when UV-visible absorbances are used to 1 pmol when radioactive analogues of appropriate specific activities are used.
The products in the ethyl acetate extracts were analyzed by HPLC using system I. Prior to deconjugation, the above aqueous layers were examined by systems II and III, which are more suitable for the water-soluble metabolites.
The aqueous layers from step B were combined with the material which was left as residues in the cones in step A. The residues in the cones were extracted in dilute sodium hydroxide and separated from the cell debris by centrifugation (2500 rpm), and the biopolymers were precipitated from the extract with excess ethanol. The precipitated polymers, mostly protein, were lyophilized and dissolved in 0.05M Tris-HCl and were fractionated on Superfine Sephacryl S-200 and the molecular weights of the major fractions were approximated. The major parts of radioactivity were confined to high molecular weight proteins with molecular weights above 67000. The amount of the tissue-bound material was estimated from the pellets in the above centrifugation (2500 rpm). The percentages were calculated on the basis of the total radioactive materials recovered. In most cases, it was over 90%.

Row | Structure (SMILES) | % ILS (B16 melanoma) [%] | surv (survivors on day 65/total injected) (B16 melanoma) | MST (range) (B16 melanoma) | optimal dose (B16 melanoma) [μg/kg per inj] | adrenochrome formation (rat hepatic microsomes) | adrenochrome formation in presence of SOD (rat hepatic microsomes) | percentage stimulation of adrenochrome formation over basal rate (rat hepatic microsomes) [%] | Bapp (equilibrium binding value) (calf-thymus DNA) | Kapp (equilibrium binding constant) (calf-thymus DNA) [M⁻¹] | IC50 (P388 cells [1]) [nM] | IC50 DNA/IC50 RNA (P388 cells [1]) | IC50 (P388 cells [2]) [nM] | Percent isolated: "tissue" bound [3] [%] | Percent isolated: protein conjugates [3] [%] | Percent isolated: unidentified metabolite [3] [%] | Percent metabolite isolated: 4a glucuronide and/or sulfate [3] [%] | Percent metabolite isolated: "symmetrical" AMD (4a) [3] [%] | Percent isolated: unconverted [3] [%] | Percent metabolite isolated: 2a glucuronide and/or sulfate [3] [%] | Percent metabolite isolated: 7-hydroxy-AMD (2a) [3] [%]
1 | Cc1c2oc3c(C)c(O)c(N)c(C(=O)NC4C(=O)NC(C(C)C)C(=O)N5CCCC5C(=O)N(C)CC(=O)N(C)C(C(C)C)C(=O)OC4C)c3nc-2c(C(=O)NC2C(=O)NC(C(C)C)C(=O)N3CCCC3C(=O)N(C)CC(=O)N(C)C(C(C)C)C(=O)OC2C)c(N)c1=O (centres unmarked) [4a, 7-Hydroxy-8-amino-actinomycin D] | 96 | 4/9 | 57 (33-61) days | 300 | 19.3 ± 1.04 nmol min^-1 (mg of protein)^-1 | inhibited | 815 | 1.3 | 6.3e+07 | 1150 | 0.97 | 1110 | – | – | – | – | – | – | – | –
2 | Cc1nc2c(C(=O)NC3C(=O)NC(C(C)C)C(=O)N4CCCC4C(=O)N(C)CC(=O)N(C)C(C(C)C)C(=O)OC3C)c3nc4c(C(=O)NC5C(=O)NC(C(C)C)C(=O)N6CCCC6C(=O)N(C)CC(=O)N(C)C(C(C)C)C(=O)OC5C)c(N)c(=O)c(C)c-4oc3c(C)c2o1 [7a, 7-Amino-2,9,11-trimethyl-8H-8-oxooxazolo [4,5-b]phenoxazine 4,6-bis[carbonyl-L-threonyl-D-valyl-L-prolylsarcosyl-L-N-methylvaline-(threonine hydroxyl)] lactone] | 90 | 3/9 | 55 (33-57) days | 300 | 6.04 ± 0.19 nmol min^-1 (mg of protein)^-1 | inhibited | 186 | 0.038 | 2.5e+06 | 90 | 11.22 | 1010 | 8.8 | 5.5 | 12.7 | 17.5 | 15.5 | 40 | – | –
3 | Cc1nc2c(C(=O)NC3C(=O)NC(C(C)C)C(=O)N4CCCC4C(=O)N(C)CC(=O)N(C)C(C(C)C)C(=O)OC3C)c3nc4c(C(=O)NC5C(=O)NC(C(C)C)C(=O)N6CCCC6C(=O)N(C)CC(=O)N(C)C(C(C)C)C(=O)OC5C)cc(=O)c(C)c-4oc3c(C)c2o1 (centres unmarked) [9a] | 55 | 1/9 | 45 (32-55) days | 750 | 4.36 ± 0.21 nmol min^-1 (mg of protein)^-1 | inhibited | 106 | – | – | – | – | – | 7.5 | 5.5 | 46.3 | – | – | 20 | 12.2 | 8.5
4 | Cc1c2oc3c(C)ccc(C(=O)N[C@@H]4C(=O)N[C@H](C(C)C)C(=O)N5CCC[C@H]5C(=O)N(C)CC(=O)N(C)[C@@H](C(C)C)C(=O)O[C@@H]4C)c3nc-2c(C(=O)N[C@@H]2C(=O)N[C@H](C(C)C)C(=O)N3CCC[C@H]3C(=O)N(C)CC(=O)N(C)[C@@H](C(C)C)C(=O)O[C@@H]2C)c(N)c1=O [AMD, Actinomycin D] (I: T[dV]P[Sar][NMeV] / II: T[dV]P[Sar][NMeV]; ester I:1-I:C, II:1-II:C; linker I:N-II:N via Actinocin(9to1)) | 48 | 2/9 | 43 (36-54) days | 250 | 2.29 ± 0.33 nmol min^-1 (mg of protein)^-1 | inhibited | 8.5 | 0.108 | 2.3e+07 | 50 | 22 and 22.40 | 1120 | – | – | – | – | – | 100 | – | –
